Source: patent US20110021531A1, “OXAZOLE DERIVATIVES USEFUL AS INHIBITORS OF FAAH” (priority 2009, published 2011)

What was measured:
[1] = molecular target: T1, human FAAH (Fatty Acid Amide Hydrolase) (Homo sapiens, UniProt O00519); assay: FAAH enzyme assay on lysate of CHO cells expressing human FAAH; assay type: biochemical
T1 construct: The full length FAAH was subcloned into the mammalian expression vector, pcDEF.neo
T1 sequence (O00519 1-579): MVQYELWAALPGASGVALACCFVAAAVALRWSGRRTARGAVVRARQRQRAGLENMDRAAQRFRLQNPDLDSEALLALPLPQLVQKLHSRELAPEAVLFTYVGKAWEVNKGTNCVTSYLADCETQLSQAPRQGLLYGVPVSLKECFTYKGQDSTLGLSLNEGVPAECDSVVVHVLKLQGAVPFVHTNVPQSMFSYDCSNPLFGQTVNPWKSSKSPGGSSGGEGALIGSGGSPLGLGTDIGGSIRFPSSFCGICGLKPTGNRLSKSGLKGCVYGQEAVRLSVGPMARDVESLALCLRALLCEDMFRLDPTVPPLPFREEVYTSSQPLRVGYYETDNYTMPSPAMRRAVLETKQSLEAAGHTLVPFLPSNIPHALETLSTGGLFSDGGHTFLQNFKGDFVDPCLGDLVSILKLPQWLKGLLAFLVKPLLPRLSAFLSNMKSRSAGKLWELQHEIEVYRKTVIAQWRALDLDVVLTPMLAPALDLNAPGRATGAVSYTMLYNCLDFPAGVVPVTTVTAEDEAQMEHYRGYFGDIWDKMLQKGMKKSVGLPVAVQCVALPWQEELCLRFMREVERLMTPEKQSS
Text: (§1) To assist in assay development stable cell lines for human, murine and rat full length FAAH were developed. Human FAAH cDNA (Accession No: NM_001441.1) was purchased from Origene (Rockville, Md.). The full length FAAH was subcloned into the mammalian expression vector, pcDEF.neo, using XbaI and EcoRI restriction sites and used for stable cell line generation.
CHO cells expressing FAAH were used to prepare either crude cell lysate or microsome fractions. To harvest cells, tissue culture media was decanted, the monolayer washed three times with Ca^++Mg^++ free PBS and cells recovered after […] in enzyme free dissociation media (Millipore Corp, Billerica, Mass.). Cells were collected by centrifuging at 2000 rpm for 15 min. and the cell pellet re-suspended with 50 mM HEPES (pH 7.4) containing 1 mM EDTA and the protease inhibitors aprotinin (1 mg/ml) and leupeptin (100 μM). The suspension was sonicated at 4° C. and the cell lysate recovered after centrifuging at 12,000×g (14,600 rpm, SS34 rotor) for 20 min at 4° C. to form a crude pellet of cell debris, nuclei, peroxisomes, lysosomes, and mitochondria; the supernatant or cell lysate was used for FAAH enzyme assay. In some cases, microsomes fractions enriched in FAAH were prepared by centrifuging the cell lysate further at 27,000 rpm (100,000×g) in SW28 rotor for 50 minutes at 4° C. The pellet containing FAAH-enriched microsomes was re-suspend in 50 mM HEPES, (pH 7.4) 1 mM EDTA, and any remaining DNA sheared by passage of material through a 23 gauge needle and aliquots of enzyme were store at −80° C. prior to use.
(§2) (American Radiolabeled Chemicals; 1 mCi/ml) with FAAH (Life Sciences (1995), 56, 1999-2005 and Journal of Pharmacology and Experimented Therapeutics (1997), 283, 729-734), Analytical. Biochemistry (2003), 318, 270-5. In addition, routine assays were performed monitoring hydrolysis of arachidonyl-7-amino-4-methylcoumarin amide (AAMCA) by following increase in fluorescence upon release of 7-amino 4-methyl coumarin (λEX=355 nm, (λEM=460 nm). Analytical. Biochemistry (2005). 343, 143-51
(§3) Assays are performed on either cell lysate or microsome fractions prepared as described or in whole cell format employing either the fluorescent substrate AAMCA (Cayman chemical, Ann Arbor, Mich.,) or ^3H-anandmaide ([ETHANOLAMINE-1-3H]American Radiolabeled Chemicals; 1 mCi/ml). The cell lysate or microsome assay is performed in Costar black wall, clear bottom plates by adding FAAH_CF10 (whole cell, cell lysate or microsome) in assay buffer (50 mM Phosphate, pH 8.0, 1 mM EDTA, 200 mM KCl, 0.2% glycerol, 0.1% fatty acid free BSA) to each well, followed by either DMSO or compound and allowed to incubate at 22-25° C. for fifteen minutes. AAMCA substrate was used to achieve a final concentration of 1 μM and reaction allowed to proceed at room temperature for 1-3 hours. Fluorescent release as a measure of FAAH activity was monitored by reading the plate in a CytoFluor Multiplate Reader (Ex: […]). Whole cell assay is conducted with cells harvested after rinsing tissue culture flasks three times with Ca^++Mg^++ free PBS, incubating for 10 min in Enzyme free dissociation media and centrifuging for 5 minutes at 1,000 rpm in table top centrifuge. Cells are resuspended in assay buffer at desired cell number in (4×10^4 cells/assay in 96-well format; 1×10^4 cells/assay in 384-well format) and assayed as described.
Alternatively, assays are performed using anandamide [ethanolamine 1-^3H] (specific activity of 10 Ci/mmol) diluted with cold anandamide to achieve a final assay concentration of 1 μM anandamide (˜50,000 cpm). Enzyme (CHO cell lysate, brain or liver homogenate) is incubated in assay buffer (50 mM Phosphate, pH 8.0, 1 mM EDTA, 200 mM KCl, 0.2% glycerol, 0.1% fatty acid free BSA) with inhibitor at 25° C. for 30 minutes. The reaction was terminated by addition of 2 volumes of chloroform:methanol (1:1) and mixed by vortexing. […]

[2] = molecular target: T1, human FAAH (Fatty Acid Amide Hydrolase); assay: FAAH whole cell assay, CHO cells expressing human FAAH; assay type: cell-based
Text: as §1
(§4) Murine (accession number NM_010173) and Rat FAAH (accession number NM_024132) was amplified by reverse transcriptase polymerase chain reaction (RT-PCR) from brain cDNA (BD Biosciences, San Jose, Calif.) using primers 1 and 2 or primers 1 and 3 respectively (see Table). The resulting PCR product was ligated into pCR4 TOPO and DNA sequence confirmed. The full length murine FAAH was subcloned into the mammalian expression vector, pcDEFneo using either EcoRI (murine) or KpnI and EcoRI (rat) restriction sites. Chinese hamster ovary cells (CHO) were transfected following manufacturers protocol (AMAXA). Forty eight hours post transfection, cells were trypsinized and transferred to 96 well plates in Iscove's DMEM media supplemented with 2 mM Glutamine, 10% fetal calf serum, 1 mg/ml geneticin and HT Supplement (0.1 mM sodium hypoxanthine, 0.016 mM thymidine) in order to isolate single clones. Following selection in geneticin, individual clones were selected and FAAH activity was assessed using a whole cell fluorescent anandamide assay, modified from Ramarao et al (2005). Following removal of tissue culture media cells were dislodged following addition of Cellstripper (Mediatech, Inc. Manassas, Va.) and transferred to 96 well black clear bottom assay plate, centrifuged at 1,000 rpm for 3 mins and media removed and replaced with assay buffer (50 mM Iris pH8.0, 1 mM EDTA, 0.1% fatty acid free BSA). The reaction was initiated by addition of fluorescent substrate, AMC Arachidonoyl Amide (Cayman Chemical, Ann Arbor, Mich.) to 1 μM and reaction allowed to proceed for 2 hours at room temperature. Release of fluorescence was monitored in a CytoFluor Multiplate Reader. Cells expressing the highest amount of FAAH activity were selected for study with FAAH inhibitors.
as §2, §3

[3] = molecular target: T2, rat FAAH (Fatty Acid Amide Hydrolase) (Rattus norvegicus, UniProt P97612); assay: FAAH whole cell assay, CHO cells expressing rat FAAH; assay type: cell-based
T2 sequence (P97612 1-579): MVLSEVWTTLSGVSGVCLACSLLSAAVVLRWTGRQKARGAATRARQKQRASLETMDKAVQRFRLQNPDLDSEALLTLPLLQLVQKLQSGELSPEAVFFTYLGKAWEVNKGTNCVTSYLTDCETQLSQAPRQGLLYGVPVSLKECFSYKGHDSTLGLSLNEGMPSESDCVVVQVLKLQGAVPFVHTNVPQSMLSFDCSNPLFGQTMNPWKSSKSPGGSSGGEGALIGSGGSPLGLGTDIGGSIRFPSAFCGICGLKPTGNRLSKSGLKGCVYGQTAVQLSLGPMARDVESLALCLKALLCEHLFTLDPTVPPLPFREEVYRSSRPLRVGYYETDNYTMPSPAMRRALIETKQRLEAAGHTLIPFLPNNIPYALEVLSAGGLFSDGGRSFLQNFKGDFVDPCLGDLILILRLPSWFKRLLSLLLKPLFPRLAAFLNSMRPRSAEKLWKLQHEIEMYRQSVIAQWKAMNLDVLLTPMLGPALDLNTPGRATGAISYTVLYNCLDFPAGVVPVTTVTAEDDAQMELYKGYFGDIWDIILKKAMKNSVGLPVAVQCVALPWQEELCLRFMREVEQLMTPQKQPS
Text: as §1, §4, §2, §3

Compound | IC50 [1] [nM] | IC50 [2] [nM] | IC50 [3] [nM]
CS(=O)(=O)c1ccc(-c2nc(-c3ccc(F)cc3)oc2Sc2ccc(Cl)cn2)cn1 [Ex 102, 5-Chloro-2-({2-(4-fluorophenyl)-4-[6-(methylsulfonyl)pyridin-3-yl]-1,3-oxazol-5-yl}sulfanyl)pyridine] | 12 | 35 | 17
COC(=O)c1cnc(-c2nc(-c3ccc(F)cc3)oc2Sc2ccc(Cl)cn2)nc1 [Ex 124, Methyl 2-{5-[(5-chloropyridin-2-yl)sulfanyl]-2-(4-fluorophenyl)-1,3-oxazol-4-yl}pyrimidine-5-carboxylate] | 11 | 98 | 16
COc1ccc(Sc2oc(-c3ccc(F)cc3)nc2-c2ccc(C(C)(C)O)nc2)c(F)c1 [Ex 65] | 27 | 29 | 21
CC(C)(O)c1ccc(-c2nc(-c3ccc(F)cc3)oc2Sc2ccc(Cl)cc2)nc1 [Ex 46] | 17 | 39 | 10
Fc1ccc(-c2nc(-c3ccc(-c4ncon4)cc3)c(Sc3ccc(Cl)cc3)o2)cc1 [Ex 48, 3-{4-[5-[(4-Chlorophenyl)thio]-2-(4-fluorophenyl)-1,3-oxazol-4-yl]phenyl}-1,2,4-oxadiazole] | 9 | 77 | 8
CS(=O)(=O)c1ccc(-c2nc(-c3ccccn3)oc2Sc2ccc(Cl)cc2)cc1 [Ex 56, 2-{5-[(4-chlorophenyl)thio]-4-[4-(methylsulfonyl)phenyl]-1,3-oxazol-2-yl}pyridine] | 15 | 114 | 16
N#CC1(c2ccc(-c3nc(-c4ccc(F)cc4)oc3Sc3ccc(Cl)cn3)cn2)CC(O)C1 (centres unmarked) [Ex 122, 1-(5-{5-[(5-Chloropyridin-2-yl)sulfanyl]-2-(4-fluorophenyl)-1,3-oxazol-4-yl}pyridin-2-yl)-3-hydroxycyclobutanecarbonitrile] | 161 | 474 | 146
CCOC(=O)c1cc(-c2nc(-c3ccc(F)cc3)oc2Sc2ccc(Cl)cn2)on1 [Ex 97, Ethyl 5-{5-[(5-chloropyridin-2-yl)sulfanyl]-2-(4-fluorophenyl)-1,3-oxazol-4-yl}isoxazole-3-carboxylate] | 20 | – | 10

The remaining lines, values ahead:

IC50 [1] [nM] | IC50 [2] [nM] | IC50 [3] [nM] | Compound
43 | 59 | 29 | CC(C)(O)c1ccc(-c2nc(-c3ccc(F)cc3)oc2Sc2ncc(Cl)cn2)cn1 [Ex 20]
27 | 37 | 21 | CC(C)(O)c1ccc(-c2nc(-c3ccc(F)c(F)c3)oc2Sc2ccc(Cl)cn2)cn1 [Ex 35]
28 | 47 | 20 | CC(C)(O)c1ccc(-c2nc(-c3cncc(Cl)c3)oc2Sc2ccc(Cl)cn2)cn1 [Ex 119, 2-(5-{2-(5-Chloropyridin-3-yl)-5-[(5-chloropyridin-2-yl)sulfanyl]-1,3-oxazol-4-yl}pyridin-2-yl)propan-2-ol]
46 | 1000 | 247 | CC(C)(O)c1ccc(-c2nc(C3CC3)oc2Sc2ccc(Cl)cn2)cn1 [Ex 90, 2-(5-{5-[(5-Chloropyridin-2-yl)sulfanyl]-2-cyclopropyl-1,3-oxazol-4-yl}pyridin-2-yl)propan-2-ol]
37 | 112 | 74 | CC(C)(O)c1ccc(-c2nc(-c3cc(F)c(F)cc3F)oc2Sc2ccc(Cl)cn2)cn1 [Ex 58]
11 | 64 | 24 | CCn1cc(-c2nc(-c3ccc(C(C)(C)O)nc3)c(Sc3ccc(Cl)cc3)o2)cn1 [Ex 111, 2-(5-{5-[(4-chlorophenyl)sulfanyl]-2-(1-ethyl-1H-pyrazol-4-yl)-1,3-oxazol-4-yl)pyridin-2-yl}propan-2-ol]
20 | 67 | 40 | Cc1ccc(-c2nc(-c3ccc(C(C)(C)O)nc3)c(Sc3ccc(Cl)cn3)o2)cc1 [Ex 59]
74 | 510 | 286 | CC(C)(O)c1ccc(-c2nc(Cc3ccc(F)cc3)oc2Sc2ccc(Cl)cn2)cn1 [Ex 123, 2-(5-{5-[(5-Chloropyridin-2-yl)sulfanyl]-2-(4-fluorobenzyl)-1,3-oxazol-4-yl}pyridin-2-yl)propan-2-ol]
140 | 1120 | 782 | CC(C)(O)c1ccc(-c2nc(-c3ccccn3)oc2Sc2ncc(Cl)cn2)cn1 [Ex 131]
